For data set [1] the following is noted: CD-1 mice, 500 mg/kg suspended in 0.5% Methocel A4M.
In a further data set the test system is COVID-19. The following applies: in-vitro isolate COVID-19, Vero E6 cells; cited from earlier work.
The next data set relates to SARS-CoV. The following applies: Vero cells infected by SARS-CoV (2002 pandemic); cited from earlier work.
For data set [2] the following is noted: rats, niclosamide dose of 10 mg/kg by oral gavage, n = 5.

The values below come from patent US20230112800A1 (priority 2021, published 2023).

Like-named read-outs stand apart in the source and are kept apart here.

`O=C(Nc1ccc([N+](=O)[O-])cc1Cl)c1cc(Cl)ccc1O` [Crystalline Nic]: in data set [1], the AUC0-last worked out at 1454.6 ng·h/mL, the Cmax turned out to be 661.7 ng/mL and the Tmax was determined as 30 min.

With `CCN(CC)CCCC(C)Nc1ccnc2cc(Cl)ccc12` (stereo not shown) [chloroquine], the half-maximal inhibitory concentration (IC50) (in general, the concentration at which inhibition is half-maximal) is 1130 nM in the data set with COVID-19 and 4.4 µM with SARS-CoV.

On to `O=C(Nc1ccc([N+](=O)[O-])cc1Cl)c1cc(Cl)ccc1O`, for which, in data set [2], the AUCInf is 188 (84) h*ng/mL, the AUC_%Extrap_obs was 8.4 (7.0) %, the AUClast is listed as 168 (64) h*ng/mL and the AUClast/D was 16.8 (6.4) h*mg/mL. In data set [2], the Cmax is 48.3 (20.6) ng/mL, the MRTInf_obs is on record as 3.56 (0.70) h, the T1/2 was 1.00 (0.30) h and the Tmax is on record as 3.60 (0.89) h.
